Laboratory results as given in US20220087987A1, “A METHOD FOR TREATING SWI/SNF COMPLEX-DEFICIENT CANCERS COMPRISING GLUTATHIONE (GSH) METABOLIC PATHWAY INHIBITOR” (National Cancer Center, priority 2018, published 2022).
Like-named read-outs stand apart in the source and are kept apart here. Peptide text beside a SMILES is read from it. * marks the point of attachment. Cbz = O=C(OCc1ccccc1)*

How the values were obtained:
ARID1A-KO HCT116 cells = assay: Drug library screen, cell viability (CellTiter-Glo); assay type: cell-based, human; details: Homo sapiens, HCT-116, 120 h, read-out: Cell viability, KO
Summary of the method: (§1)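 ARID1A-WT and ARID1A-KO HCT116 cells screened against the library; viability read after 5 days by CellTiter-Glo luminescence, expressed relative to DMSO-treated cells. Hits: KO viability below 40% with WT viability above 80%.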

[1] = as above; assay type: cell-based, human; details: human
Summary of the method: as §1

[2] = HCT116 ARID1A-KO, 10 μM for 5 days, relative to cells treated with solvent (DMSO)
[3] = HCT116 ARID1A-WT, 10 μM for 5 days, relative to cells treated with solvent (DMSO), read-out: Cell viability, WT

| SMILES | viability at 10 µM (ARID1A-KO HCT116 cells; [2]) | viability at 5 days, 10 μM [1, 3] | viability [1, 3] | viability at 10 µM (ARID1A-KO HCT116 cells) | viability at 5 days, 10 μM [1] |
| --- | --- | --- | --- | --- | --- |
| CC(C)(C)NC(=O)[C@H]1CC[C@H]2[C@@H]3CC[C@H]4NC(=O)C=C[C@]4(C)[C@H]3CC[C@]12C [Finasteride] | 108% | 99.6% |  |  |  |
| CC(C)C(=O)Nc1ccc([N+](=O)[O-])c(C(F)(F)F)c1 [Flutamide] | 126% | 163% |  |  |  |
| C[C@]12CCC(=O)C(O)=C1CC[C@@H]1[C@@H]2CC[C@]2(C)C(=O)CC[C@@H]12 [Formestane] | 69.5% |  | 108% |  |  |
| CO[C@@H]1[C@H](OC(=O)/C=C/C=C/C=C/C=C/C(=O)O)CC[C@]2(CO2)[C@H]1[C@@]1(C)O[C@@H]1CC=C(C)C [Fumagillin] |  | 96.4% |  | 82.2% |  |
| CNC(=O)[C@H](Cc1c[nH]c2ccccc12)NC(=O)[C@@H](CC(=O)NO)CC(C)C [GM 6001] | 123% | 188% |  |  |  |
| O=c1c(-c2ccc(O)cc2)coc2cc(O)cc(O)c12 [Genistein] | 118% |  | 173% |  |  |
| COc1ccc(Cl)cc1C(=O)NCCc1ccc(S(=O)(=O)NC(=O)NC2CCCCC2)cc1 [Glibenclamide] | 109% | 108% |  |  |  |
| O=S(=O)(c1cccc2cnccc12)N1CCCNCC1 [HA1077] | 73.8% | 155% |  |  |  |
| NC(=O)NO [Hydroxyurea] | 117% | 157% |  |  |  |
| C[C@H](CCC(=O)O)C[C@H](C)C[C@H](C)C(=O)/C=C(\O)[C@H](C)C[C@H](C)C/C=C/[C@@H](C)[C@@H](O)[C@@H](C)[C@@H](O)C[C@@H]1CC[C@@](C)([C@H]2CC[C@@](C)([C@@H](C)O)O2)O1 [Ionomycin] | 35.9% |  | 31.8% |  |  |
| CC1=C2C(=O)[C@H]3[C@@H](CC=C4C[C@@H](O)CC[C@@]43C)[C@@H]2CC[C@]12O[C@@H]1C[C@H](C)CN[C@H]1[C@H]2C [Jervine] | 90.1% |  | 74.4% |  |  |
| O=C1Cc2c([nH]c3ccc(Br)cc23)-c2ccccc2N1 [Kenpaullone] | 35% | 66.2% |  |  |  |
| CC(=O)N[C@@H](CSC(=O)[C@]1([C@@H](O)C(C)C)NC(=O)[C@H](C)[C@@H]1O)C(=O)O [Lactacystin] | 26.1% | 32.6% |  |  |  |
| O=C(O)c1nn(Cc2ccc(Cl)cc2Cl)c2ccccc12 [Lonidamine] | 116% | 98.4% |  |  |  |
| CC[C@H](C)C(=O)O[C@H]1C[C@@H](C)C=C2C=C[C@H](C)[C@H](CC[C@@H]3C[C@@H](O)CC(=O)O3)[C@H]21 [Lovastatin] | 85.2% | 132% |  |  |  |
| CNC(=O)c1ccc(N2C(=S)N(c3ccc(C#N)c(C(F)(F)F)c3)C(=O)C2(C)C)cc1F [MDV3100] | 94.9% | 88.8% |  |  |  |
| CC(C)C[C@@H](C=O)NC(=O)[C@H](CC(C)C)NC(=O)[C@H](CC(C)C)NC(=O)OCc1ccccc1 [MG-132] (Cbz-Leu-Leu-Leu-aldehyde) | 2.45% |  | 3.45% |  |  |
| NC(=O)c1cccc2cn(-c3ccc([C@@H]4CCCNC4)cc3)nc12 [MK-4827 (Niraparib), Niraparib] | 28.7% | 29.3% |  |  |  |
| COc1cc(Nc2ncc3c(n2)-c2ccc(Cl)cc2C(c2c(F)cccc2OC)=NC3)ccc1C(=O)O [MLN8237] | 39.1% | 36.8% |  |  |  |
| CN(Cc1cnc2nc(N)nc(N)c2n1)c1ccc(C(=O)N[C@@H](CCC(=O)O)C(=O)O)cc1 [Methotrexate] | 43.9% | 43% |  |  |  |
| CC#C[C@]1(O)CC[C@H]2[C@@H]3CCC4=CC(=O)CCC4=C3[C@@H](c3ccc(N(C)C)cc3)C[C@@]21C [Mifepristone] | 85.3% | 95.9% |  |  |  |
| CCOC(=O)C1=C(C)NC(=S)NC1c1cccc(O)c1 (stereo not drawn) [Monastrol] | 104% | 102% |  |  |  |
| CC[C@@]1([C@@H]2O[C@@H]([C@H]3O[C@@](O)(CO)[C@H](C)C[C@@H]3C)C[C@@H]2C)CC[C@H]([C@]2(C)CC[C@]3(C[C@H](O)[C@@H](C)[C@@H]([C@@H](C)[C@@H](OC)[C@H](C)C(=O)O)O3)O2)O1 [Monensin] |  |  |  | 3.95% | 3.45% |
| CC(=O)N[C@@H](CS)C(=O)O [N-Acetyl-L-cysteine] | 139% | 186% |  |  |  |
| O=C(O)c1ccccc1Nc1ccccc1 [N-phenylanthranilic acid] | 118% | 101% |  |  |  |
| CS(=O)(=O)Nc1ccc([N+](=O)[O-])cc1OC1CCCCC1 [NS-398] |  | 177% |  | 142% |  |
| CCn1cc(C(=O)O)c(=O)c2ccc(C)nc21 [Nalidixic acid] | 97.5% | 102% |  |  |  |
